For this assay, the system named is P388. The assay is described as follows: Cytotoxicity against mouse P388 cells. It counts as functional, cell-based.

≈ marks a conversion by molar mass, not a printed value.

We go through one molecule from ChEMBL document CHEMBL1157500, “Spiroleptosphol isolated from Leptosphaeria doliolum” (Bioorg Med Chem Lett, 2008).

The EC50 is the concentration at which the effect is half-maximal.

On to `C=C1OC(=O)[C@@]2([C@H](/C=C/[C@H](C)C[C@H](C)CC)C=C[C@@H](O)[C@@H]2O)[C@H]1O` [SPIROLEPHTOSHOL], for which the concentration giving a half-maximal response (EC50) was 20 µg/mL (≈ 59.4 µM).
